For ten molecules, inhibition results are on record in patent US7109193B2, “Tricyclic diazepines tocolytic oxytocin receptor antagonists” (Wyeth, priority 2001, dated 2006).

For this experiment, the target named is T1, human vasopressin V2 receptor subtype (Homo sapiens, UniProt P30518).
T1 construct: host or cells: CHO cells (pZeoSV vector)
T1 sequence (P30518 whole entry): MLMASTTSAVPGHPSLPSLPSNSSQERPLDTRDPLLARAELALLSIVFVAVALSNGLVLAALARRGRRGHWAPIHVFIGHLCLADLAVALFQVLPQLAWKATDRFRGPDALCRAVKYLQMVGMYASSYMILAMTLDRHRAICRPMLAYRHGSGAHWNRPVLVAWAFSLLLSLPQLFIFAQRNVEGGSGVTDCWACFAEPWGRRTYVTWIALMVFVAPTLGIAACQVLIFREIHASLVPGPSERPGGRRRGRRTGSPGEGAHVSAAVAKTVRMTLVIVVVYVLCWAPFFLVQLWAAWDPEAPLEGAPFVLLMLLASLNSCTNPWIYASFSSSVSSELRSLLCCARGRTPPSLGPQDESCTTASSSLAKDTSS
Description: Vasopressin binding in Chinese Hamster Ovary cell membranes expressing human vasopressin V2 subtype receptors. Particulars: 100 nM, CHO cell membranes, [3H]arginine vasopressin, values without parentheses. The method in brief:
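Radioligand displacement on membranes from CHO cells stably expressing human V2 receptor, 25 to 50 μg protein/well, in 50 mM Tris-HCl pH 7.4 with MgCl2, BSA and protease inhibitors. [^3H]arginine vasopressin (8 nM working solution) incubated 60 min at room temperature; bound label measured by filtration and scintillation counting.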
Broadly, the inhibition is the change of the read-out against control, counted positive when it falls. In the case of `COc1cccc(-c2ccc(C(=O)N3Cc4ccc(C(=O)NCCCN(C)C)n4Cc4ccccc43)cc2C)c1` [Example 74, N-[3-(Dimethylamino)propyl]-10-[(3′-methoxy-2-methyl[1,1′-biphenyl]-4-yl)carbonyl]-10,11-dihydro-5H-pyrrolo[2,1-c][1,4]benzodiazepine-3-carboxamide], the inhibition at 0.1 µM is 14%.

As for `COc1ccccc1-c1ccc(C(=O)N2Cc3ccc(C(=O)N[C@@H](CCCCNC(=O)OC(C)(C)C)C(N)=O)n3Cc3ccccc32)cc1OC` [Example 303, tert-Butyl (5S)-6-amino-5-[({10-[(2,2′-dimethoxy[1,1′-biphenyl]-4-yl)carbonyl]-10,11-dihydro-5H-pyrrolo[2,1-c][1,4]benzodiazepin-3-yl}carbonyl)amino]-6-oxohexylcarbamate], the inhibition at 0.1 µM was determined as 14%. The figure for `Cc1ccccc1-c1ccc(C(=O)N2Cc3ccc(C(=O)N4CCCN(C)CC4)n3Cc3ccccc32)cc1C` [Example 63, {10-[(2,2′-Dimethyl[1,1′-biphenyl]-4-yl)carbonyl]-10,11-dihydro-5H-pyrrolo[2,1-c][1,4]benzodiazepin-3-yl}(4-methyl-1,4-diazepan-1-yl)methanone] is 9%. The figure for `COc1cc(C(=O)N2Cc3ccc(C(=O)N4CCC(N5CCCCC5)CC4)n3Cc3ccccc32)ccc1-n1c(C)ccc1C` [Example 311, {10-[4-(2,5-Dimethyl-1H-pyrrol-1-yl)-3-methoxy-benzoyl]-10,11-dihydro-5H-pyrrolo[2,1-c][1,4]benzodiazepin-3-yl}[4-(1-piperidinyl)-1-piperidinyl]-methanone] is 7%; for `COc1cc(C(=O)N2Cc3ccc(C(=O)N4CCN(CCCN(C)C)CC4)n3Cc3ccccc32)ccc1-c1ccccc1C` [Example 250, {4-[3-(Dimethylamino)propyl]-1-piperazinyl}{10-[(2-methoxy-2′-methyl[1,1′-biphenyl]-4-yl)carbonyl]-10,11-dihydro-5H-pyrrolo[2,1-c][1,4]benzodiazepin-3-yl}methanone] it is -10%. Turning to `COc1cc(C(=O)N2Cc3ccc(C(=O)N4CCN(C(C)C)CC4)n3Cc3ccccc32)ccc1-n1c(C)ccc1C` [Example 319, {10-[4-(2,5-Dimethyl-1H-pyrrol-1-yl)-3-methoxybenzoyl]-10,11-dihydro-5H-pyrrolo[2,1-c][1,4]benzodiazepin-3-yl}(4-isopropyl-1-piperazinyl)methanone], the inhibition at 0.1 µM amounted to 13%.

`CN1CCN(C(=O)c2ccc3n2Cc2ccccc2N(C(=O)c2ccc(-c4cccc5ccccc45)cc2Cl)C3)CC1` [Example 58, {10-[2-Chloro-4-(1-naphthyl)benzoyl]-10,11-dihydro-5H-pyrrolo[2,1-c][1,4]benzodiazepin-3-yl}(4-methyl-1-piperazinyl)methanone]: the inhibition at 0.1 µM was determined as 18%. In the case of `COc1cc(C(=O)N2Cc3ccc(C(=O)N4CCN(CCN(C)C)CC4)n3Cc3ccccc32)ccc1-n1c(C)ccc1C` [Example 316, {4-[2-(Dimethylamino)ethyl]-1-piperazinyl}{10-[4-(2,5-dimethyl-1H-pyrrol-1-yl)-3-methoxybenzoyl]-10,11-dihydro-5H-pyrrolo[2,1-c][1,4]benzodiazepin-3-yl}methanone] it was -2%; in that of `COc1cc(C(=O)N2Cc3ccc(C(=O)N4CCN(CCN5CCOCC5)CC4)n3Cc3ccccc32)ccc1-n1c(C)ccc1C` [Example 317, {10-[4-(2,5-Dimethyl-1H-pyrrol-1-yl)-3-methoxybenzoyl]-10,11-dihydro-5H-pyrrolo[2,1-c][1,4]benzodiazepin-3-yl}{4-[2-(4-morpholinyl)ethyl]-1-piperazinyl}methanone], 15%; in that of `COc1ccccc1-c1ccc(C(=O)N2Cc3ccc(C(=O)NCCCN(C)C)n3Cc3ccccc32)cc1` [Example 75, N-[3-(Dimethylamino)propyl]-10-[(2′-methoxy[1,1′-biphenyl]-4-yl)carbonyl]-10,11-dihydro-5H-pyrrolo[2,1-c][1,4]benzodiazepine-3-carboxamide], 14%.
